As a reminder, the IC50 is the point on the concentration scale where inhibition reaches its midpoint.

Data on 30 compounds can be found in US9181235B2, “Substituted pyridines for modulating the WNT signaling pathway” (NOVARTIS AG, priority 2010, dated 2015).

This experiment deals with Wnt signaling. Kind of experiment: Wnt-Luc reporter assay for pathway inhibition of Wnt signaling. Format: cell-based, mouse (TM3 Wnt-Luc) or human (293 Wnt-Luc); not stated which. To be noted: Wnt-Luc reporter cells co-cultured with L-cell Wnt3a cells, 24 hours, luciferase signal reduced by 50%. On the procedure: This example provides a method that is useful for evaluating test compounds for inhibition of Wnt signaling.
Mouse leydig cell TM3 cells (obtained from American Type Culture Collection, ATCC, Manassas, Va.) are cultured in 1:1 mixture of Ham's F12 medium and Dulbecco's modified Eagle's medium (Gibco/Invitrogen, Carlsbad, Calif.) supplemented with 2.5% FBS (Gibco/Invitrogen, Carlsbad, Calif.) and 5% horse serum (Gibco/Invitrogen, Carlsbad, Calif.), 50 unit/mL penicillin and 50 μg/mL of streptomycin (Gibco/Invitrogen, Carlsbad, Calif.) at 37° C. with 5% CO2 in air atmosphere. TM3 cells in a 10 cm dish are co-transfected with 8 μg of STF-reporter plasmid containing a luciferase gene driven by Wnt-responsive elements and 2 μg of pcDNA3.1-Neo (Gibco/Invitrogen, Carlsbad, Calif.) with 30 μL of FuGENE6 (Roche Diagnostics, Indianapolis, Ind.) following the manufacturer's protocol. Stable cell lines (TM3 Wnt-Luc) were selected with 400 μg/mL of G418 (Gibco/Invitrogen, Carlsbad, Calif.). The TM3 Wnt-Luc cells and L-cell Wnt3a cells (obtained from American Type Culture Collection, ATCC, Manassas, Va.; cultured in Dulbecco's modified Eagle's medium (Gibco/Invitrogen, Carlsbad, Calif.) supplemented with 10% FBS (Gibco/Invitrogen, Carlsbad, Calif.) and 50 unit/mL penicillin and 50 μg/mL of streptomycin (Gibco/Invitrogen, Carlsbad, Calif.) at 37° C. with 5% CO2 in air atmosphere) are trypsinized and co-cultured into a 384-well plate with DMEM medium supplemented with 2% FBS, and treated with different concentrations of a compound of the invention. After 24 hours, the firefly luciferase activities are assayed with the Bright-Glo™ Luciferase Assay System (Promega, Madison, Wis.). The IC50 is measured when the effect of the compound reduces the luminescence signal by 50%.
This example provides another method that is useful for evaluating test compounds for inhibition of Wnt signaling.
Human embryonic kidney 293 cells (obtained from American Type Culture Collection, ATCC, Manassas, Va.) are cultured in DMEM medium (Gibco/Invitrogen, Carlsbad, Calif.) supplemented with 10% FBS (Gibco/Invitrogen, Carlsbad, Calif.), 50 unit/mL penicillin and 50 μg/mL of streptomycin (Gibco/Invitrogen, Carlsbad, Calif.) at 37° C. with 5% CO2 in air atmosphere. 293 cells in a 10 cm dish are co-transfected with 8 μg of STF-reporter plasmid containing a luciferase gene driven by Wnt-responsive elements and 2 μg of pcDNA3.1-Neo (Gibco/Invitrogen, Carlsbad, Calif.) with 30 μL of FuGENE6 (Roche Diagnostics, Indianapolis, Ind.) following the manufacturer's protocol. Stable cell lines (293 Wnt-Luc) were selected with 400 μg/mL of G418 (Gibco/Invitrogen, Carlsbad, Calif.). The 293 Wnt-Luc cells and L-cell Wnt3a cells (obtained from American Type Culture Collection, ATCC, Manassas, Va.) are trypsinized and co-cultured into a 384-well plate with DMEM medium supplemented with 2% FBS, and treated with different concentrations of a compound of the invention. After 24 hours, the firefly luciferase activities are assayed with the Bright-Glo™ Luciferase Assay System (Promega, Madison, Wis.). The IC50 is measured when the effect of the compound reduces the luminescence signal by 50%.
Background: Reporter assays use an easily measured gene product as a stand-in for the process of interest.

For `O=C(NCc1ccc(-c2ccnnc2)cc1)c1ccc(-c2ccccc2)cc1` [compound 1, N-(4-(pyridazin-4-yl)benzyl)biphenyl-4-carboxamide], 1900 pM corresponded to half-maximal inhibition (IC50).

For `O=C(NCc1ccc(-c2ccnnc2)cc1)c1ccc(-c2cccc(F)c2)cc1` [compound 2, 4-(3-fluorophenyl)-N-{[4-(pyridazin-4-yl)phenyl]methyl}benzamide], the half-inhibitory concentration (IC50) stood at 950 pM.

`O=C(NCc1ccc(N2CCS(=O)(=O)CC2)nc1)c1ccc(-c2cccc(F)c2)cc1` [compound 3, N-((6-(1,1-dioxidothiomorpholino)pyridin-3-yl)methyl)-3′-fluoro-[1,1′-biphenyl]-4-carboxamide] had a concentration for half-maximal inhibition (IC50) of 2300 pM.

The compound `O=C(NCc1ccc(N2CCS(=O)(=O)CC2)nc1)c1ccc(-c2cccc(F)c2)nc1` [compound 4, N-((6-(1,1-dioxidothiomorpholino)pyridin-3-yl)methyl)-6-(3-fluorophenyl)nicotinamide] gave a concentration for half-maximal inhibition (IC50) of 2400 pM.

In turn, `O=C(NCc1ccc(N2CCS(=O)(=O)CC2)nc1)c1ccc(-c2cccnc2)nc1` [compound 5, N-((6-(1,1-dioxidothiomorpholino)pyridin-3-yl)methyl)-[2,3′-bipyridine]-5-carboxamide] returned a half-maximal inhibitory concentration (IC50) of 129000 pM.

Turning to `O=C(NCc1ccc(N2CCS(=O)(=O)CC2)nc1)c1ccc(-c2cccc(F)c2)cn1` [compound 6, 5-(3-Fluorophenyl)-N-((6-(1,1-dioxide-thiomorpholino)pyridin-3-yl)methyl)picolinamide], the IC50 came out at 900 pM.

`COC(=O)N1CCN(c2ccc(C(=O)NCc3ccc(N4CCS(=O)(=O)CC4)nc3)cc2)CC1` [compound 7, methyl 4-(4-(((6-(1,1-dioxidothiomorpholino)pyridin-3-yl)methyl)carbamoyl)phenyl)piperazine-1-carboxylate] registered an IC50 of 19000 pM.

The compound `O=C(NCc1ccc(N2CC[S+]([O-])CC2)nc1)c1ccc(-c2cccc(F)c2)cc1` [compound 8, 3′-fluoro-N-((6-(1-oxide-thiomorpholino)pyridin-3-yl)methyl)biphenyl-4-carboxamide] returned an IC50 of 700 pM.

`Cc1cc(-c2ccc(CNC(=O)c3ccc(-c4ccccc4)cc3)cc2)ccn1` [compound 9, N-{[4-(2-methylpyridin-4-yl)phenyl]methyl}-4-phenylbenzamide] registered a 50% inhibitory concentration (IC50) of 60 pM.

Compound `O=C(NCc1ccc(-c2cccnc2)cc1)c1ccc(-c2ccccc2)cc1` [compound 10, N-(4-(pyridin-3-yl)benzyl)biphenyl-4-carboxamide] had a half-maximal inhibitory concentration (IC50) of 12500 pM.

For the compound `Cc1cc(-c2ccc(CNC(=O)c3ccc(-c4ccccc4)cn3)cc2)ccn1` [compound 11, N-{[4-(2-methylpyridin-4-yl)phenyl]methyl}-5-phenylpyridine-2-carboxamide], the half-maximal inhibitory concentration (IC50) stood at 200 pM.

Compound `Cc1cc(-c2ccc(CNC(=O)c3ccc(-c4cccc(F)c4)cc3)cc2)ccn1` [compound 12, 4-(3-fluorophenyl)-N-{[4-(2-methylpyridin-4-yl)phenyl]methyl}benzamide] registered an IC50 of 60 pM.

Regarding `Cc1cc(-c2ccc(CNC(=O)c3ccc(-c4ccccn4)cc3)cc2)ccn1` [compound 13, N-(4-(2-methylpyridin-4-yl)benzyl)-4-(pyridin-2-yl)benzamide], the 50% inhibitory concentration (IC50) was found to be 100 pM.

Regarding `COC(=O)N1CCN(c2ccc(C(=O)NCc3cnc(-c4ccnc(C(F)(F)F)c4)c(F)c3)cn2)CC1` [compound 14, methyl 4-{5-[({5-fluoro-6-[2-(trifluoromethyl)pyridin-4-yl]pyridin-3-yl}methyl)carbamoyl]pyridin-2-yl}piperazine-1-carboxylate], the IC50 came to 440 pM.

With `Cc1cc(-c2ccc(CNC(=O)c3ccc(-c4cncnc4)cc3)cc2F)ccn1` [compound 15, N-(3-fluoro-4-(2-methylpyridin-4-yl)benzyl)-4-(pyrimidin-5-yl)benzamide], the IC50 was found to be 10 pM.

`Cc1cc(-c2ccc(CNC(=O)c3ccc(-c4cncnc4)cc3)cc2)ccn1` [compound 16, N-{[4-(2-methylpyridin-4-yl)phenyl]methyl}-4-(pyrimidin-5-yl)benzamide] registered an IC50 of 50 pM.

`Cc1cc(-c2ccc(CNC(=O)c3ccc(-c4cnccn4)cc3)cc2)ccn1` [compound 17, N-{[4-(2-methylpyridin-4-yl)phenyl]methyl}-4-(pyrazin-2-yl)benzamide] had a concentration for half-maximal inhibition (IC50) of 60 pM.

In the case of `Cc1cc(-c2ccc(CNC(=O)c3ccc(-c4cnccn4)cc3)cn2)ccn1` [compound 18, N-((2′-methyl-[2,4′-bipyridin]-5-yl)methyl)-4-(pyrazin-2-yl)benzamide], the midpoint of inhibition, the IC50, lay at 200 pM.

Take `Cc1cc(-c2ccc(CNC(=O)c3ccc(-c4ccnnc4)nc3)cc2)ccn1` [compound 19, N-{[4-(2-methylpyridin-4-yl)phenyl]methyl}-6-(pyridazin-4-yl)pyridine-3-carboxamide]: the IC50 is 27000 pM.

`CC(=O)N1CCN(c2ccc(C(=O)NCc3ccc(-c4ccnc(C)c4)c(F)c3)cn2)CC1` [compound 20, 6-(4-Acetylpiperazin-1-yl)-N-(3-fluoro-4-(2-methylpyridin-4-yl)benzyl)nicotinamide] came in with an IC50 of 6400 pM.

Turning to `Cn1cc(-c2ccc(CNC(=O)c3ccc(-c4cnccn4)cc3)cc2F)ccc1=O` [compound 21, N-(3-fluoro-4-(1-methyl-6-oxo-1,6-dihydropyridin-3-yl)benzyl)-4-(pyrazin-2-yl)benzamide], the IC50 is 6400 pM.

Compound `CC(=O)N1CCN(c2ccc(C(=O)NCc3ccc(-c4ccnc(C)c4)c(F)c3)nc2)CC1` [compound 22, 5-(4-acetylpiperazin-1-yl)-N-{[3-fluoro-4-(2-methylpyridin-4-yl)phenyl]methyl}pyridine-2-carboxamide] displayed an IC50 of 8500 pM.

`Cc1cc(-c2ccc(CNC(=O)c3ccc(-c4cccc(F)c4)cc3)cn2)ccn1` [compound 23, 4-(3-fluorophenyl)-N-{[6-(2-methylpyridin-4-yl)pyridin-3-yl]methyl}benzamide] registered an IC50 of 100 pM.

The compound `O=C(NCc1ccc(-c2ccnc(F)c2)nc1)c1ccc(-c2cnccn2)cc1` [compound 24, N-((2′-fluoro-[2,4′-bipyridin]-5-yl)methyl)-4-(pyrazin-2-yl)benzamide] came in with an IC50 of 800 pM.

`CN(C)c1ccc(-c2ccc(C(=O)NCc3ccc(-c4ccnc(F)c4)nc3)cn2)cn1` [compound 25, 6-[6-(dimethylamino)pyridin-3-yl]-N-{[6-(2-fluoropyridin-4-yl)pyridin-3-yl]methyl}pyridine-3-carboxamide] returned an IC50 of 1400 pM.

`Cc1cc(-c2ccc(CNC(=O)c3ccc(-c4cccc(F)c4)cn3)cn2)ccn1` [compound 26, 5-(3-fluorophenyl)-N-{[6-(2-methylpyridin-4-yl)pyridin-3-yl]methyl}pyridine-2-carboxamide] returned an IC50 of 500 pM.

For `Cc1cc(-c2ccc(CNC(=O)c3ccc(-c4cccc(F)c4)nc3)cn2)ccn1` [compound 27, 6-(3-fluorophenyl)-N-{[6-(2-methylpyridin-4-yl)pyridin-3-yl]methyl}pyridine-3-carboxamide], 200 pM corresponded to half-maximal inhibition (IC50).

As to `O=C(NCc1ccc(-c2ccnc(C(F)(F)F)c2)cc1)c1ccc(-c2cnccn2)cc1` [compound 28, 4-(Pyrazin-2-yl)-N-(4-(2-(trifluoromethyl)pyridin-4-yl)benzyl)benzamide], the IC50 is 900 pM.

On to `Cc1cc(-c2ccc(CNC(=O)c3ccc(-c4cccc(N(C)C)c4)cn3)cn2)ccn1` [compound 29, 5-[3-(dimethylamino)phenyl]-N-{[6-(2-methylpyridin-4-yl)pyridin-3-yl]methyl}pyridine-2-carboxamide], for which the IC50 worked out at 43000 pM.

`Cc1cc(CNC(=O)c2ccc(-c3cccc(F)c3)cn2)cnc1-c1ccnc(F)c1` [compound 30, N-((2′-fluoro-3-methyl-2,4′-bipyridin-5-yl)methyl)-5-(3-fluorophenyl)picolinamide] displayed a half-inhibitory concentration (IC50) of 170 pM.
